# Patent US8859545B2, “Tetrahydronaphthyridine and tetrahydropyrido[4,3-D]pyrimidine compounds and compositions thereof useful for the treatment of inflammatory and respiratory diseases” (Evotec AG, priority 2005, dated 2014)
# Tested on: P2X2/3 chimera (P2X2/3C)
# Assay: Calcium uptake assay (P2X antagonist assay, agonist-induced calcium influx)
# Format: cell-based
# Conditions: at 3 μM (symbol before the slash)
# Description: Human P2X3 (Accession no. NM_002559), P2X2 (Accession no. NM_170682) and Rat P2X3 (Accession no. NM_031075) and P2X2 (Accession no. NM_053656) are cloned into a mammalian expression vector (e.g., pcDNA5/TO or pcDNA3 Invitrogen). For coexpression of P2X2 and P2X3, the coding regions of both receptors were cloned into a bicistronic vector using methods similar to those described by Kawashima et al., Receptors Channels 5:53-60, 1998. The P2X2/3 chimera clone was created as described by Neelands et al, and then cloned into an expression vector as above. Receptors are expressed in cells (e.g., HEK293 or 1321N1) via transient transfection using standard lipid mediated transfection, or by creation of stable transfectants for each receptor. Cell lines are maintained in DMEM+5% Glutamax, the appropriate level of selective antibiotic, and 10% heat inactivated FBS.
# The agonist EC50 is determined at the start of the assay and compound IC50 experiments are run using a set agonist concentration (EC50-90 depending on cell line) as stimulus. The agonists used are αβMeATP, ATP, or other ATP analogs. Compounds may be tested at concentrations ranging from 1 μM to 10 μM. Functional activity of compounds at the P2X receptor is determined by measuring their ability to inhibit agonist-induced calcium influx. Compounds may be tested for antagonist activity against the P2X2/3 chimera, the P2X3 homomer, or the P2X2/3 heteromer. To test for antagonist activity, cells expressing the appropriate receptor are seeded onto 96 or 384 well plates 18-24 hours prior to assay. On the day of the assay, cells are loaded with calcium-sensitive fluorescent dye (e.g., Fluo-4 no wash reagent-Invitrogen cat# F36206, or the BD™ PBX Calcium Assay Kit-BD cat#640175) in Hank's Buffered Salt Solution (HBSS) with up to 10 mM supplemental CaCl2. Plates are incubated at 37° C. and then equilibrated at room temperature. Antagonism of agonist-induced calcium influx is measured using a fluorescent imaging plate reader. The assay comprises two stages: a pre-treatment phase followed by a treatment phase. Compounds may be tested as follows: For the pre-treatment phase, 50 μL of 3× concentration of test compound in HBSS is added to cells containing 100 μL of dye loading media to achieve a final concentration of 1×. For the treatment phase, at a set interval after pre-treatment, 50 μL of 1× test compound plus 4× agonist solution is added to cells. Fluorescence is measured at 0.1-3 second intervals with an excitation wavelength of 494 nm and an emission wavelength of 515 nm. Responses are measured as peak fluorescence after compound-agonist addition minus baseline fluorescence prior to treatment. Percent inhibition is calculated as follows: […]
# A calcium uptake assay was performed as described in paragraphs […] above.
row,Compound,Ca Influx P2X2/3C % Inhibition at 3 μM/10 μM
1,Cc1ccc(N2CCc3ncnc(NCc4ccccc4OC(F)F)c3C2)nc1 [Compound 52],++++/ ^ (compound exhibited 75% or greater inhibition at 3 μM)
2,COc1ccc(CNc2ncnc3c2CN(c2ccc(C)cn2)CC3)cc1 [Compound 53],++++/ ^ (compound exhibited 75% or greater inhibition at 3 μM)
3,Cc1ccc(N2CCc3ncnc(NCCc4ccc(Cl)c(Cl)c4)c3C2)nc1 [Compound 54],+++/ ^ (compound exhibited 50-75% inhibition at 3 μM)
4,Cc1ccc(N2CCc3ncnc(NCc4cccc(Cl)c4)c3C2)nc1 [Compound 55],++++/ ^ (compound exhibited 75% or greater inhibition at 3 μM)
5,Cc1ccc(CNc2ncnc3c2CN(c2ccc(C)cn2)CC3)cc1 [Compound 56],++++/ ^ (compound exhibited 75% or greater inhibition at 3 μM)
6,Cc1ccc(N2CCc3ncnc(NCc4cccc(F)c4)c3C2)nc1 [Compound 57],++++/ ^ (compound exhibited 75% or greater inhibition at 3 μM)
7,Cc1ccc(N2CCc3ncnc(NCc4ccc(C(C)C)cc4)c3C2)nc1 [Compound 58],+/ (compound exhibited 0-25% inhibition at 3 μM)
8,COc1ccc(CN(C)c2ncnc3c2CN(c2ccc(C)cn2)CC3)cc1OC [Compound 59],++ (compound exhibited 25-50% inhibition at 3 μM)
9,Cc1ccc(N2CCc3ncnc(NCCc4cccc(C(F)(F)F)c4)c3C2)nc1 [Compound 61],++++ (compound exhibited 75% or greater inhibition at 3 μM)
10,Cc1ccc(N2CCc3ncnc(N(C)Cc4ccc(Cl)cc4)c3C2)nc1 [Compound 62],+/ (compound exhibited 0-25% inhibition at 3 μM)
11,COc1ccccc1CN(C)c1ncnc2c1CN(c1ccc(C)cn1)CC2 [Compound 63],+/ (compound exhibited 0-25% inhibition at 3 μM)
12,COc1cccc(CN(C)c2ncnc3c2CN(c2ccc(C)cn2)CC3)c1 [Compound 64],+/ (compound exhibited 0-25% inhibition at 3 μM)
13,CCc1ccc(CN(C)c2ncnc3c2CN(c2ccc(C)cn2)CC3)cc1 [Compound 65],+/ (compound exhibited 0-25% inhibition at 3 μM)
14,Cc1ccc(N2CCc3ncnc(N(C)Cc4cccc(Cl)c4)c3C2)nc1 [Compound 66],+/ (compound exhibited 0-25% inhibition at 3 μM)
15,Cc1ccc(N2CCc3ncnc(N(C)Cc4ccc(F)cc4)c3C2)nc1 [Compound 67],+ (compound exhibited 0-25% inhibition at 3 μM)
16,COc1ccc(CN(C)c2ncnc3c2CN(c2ccc(C)cn2)CC3)cc1 [Compound 68],+/ (compound exhibited 0-25% inhibition at 3 μM)
17,Cc1ccc(N2CCc3ncnc(N(C)Cc4ccc(C(F)(F)F)cc4)c3C2)nc1 [Compound 69],+/ (compound exhibited 0-25% inhibition at 3 μM)
18,Cc1ccc(CN(C)c2ncnc3c2CN(c2ccc(C)cn2)CC3)cc1 [Compound 70],++/ (compound exhibited 25-50% inhibition at 3 μM)
19,Cc1ccc(N2CCc3ncnc(NCc4cc(F)ccc4F)c3C2)nc1 [Compound 71],+++/ ^ (compound exhibited 50-75% inhibition at 3 μM)

row,Compound,Ca Influx P2X2/3C % Inhibition at 3 μM/10 μM
1,Cc1ccc(N2CCc3ncnc(NCc4ccc(F)c(F)c4)c3C2)nc1 [Compound 73],++++/ ^ (compound exhibited 75% or greater inhibition at 3 μM)
2,Cc1ccc(N2CCc3ncnc(NCc4cc(C(F)(F)F)ccc4F)c3C2)nc1 [Compound 74],+/ (compound exhibited 0-25% inhibition at 3 μM)
3,Cc1ccc(N2CCc3ncnc(NCc4cc(F)cc(C(F)(F)F)c4)c3C2)nc1 [Compound 75],+/ (compound exhibited 0-25% inhibition at 3 μM)
4,Cc1ccc(N2CCc3ncnc(NCc4ccc(F)c(C(F)(F)F)c4)c3C2)nc1 [Compound 76],+/ (compound exhibited 0-25% inhibition at 3 μM)
5,Cc1ccc(N2CCc3ncnc(NCc4cccc(F)c4F)c3C2)nc1 [Compound 77],++++/ ^ (compound exhibited 75% or greater inhibition at 3 μM)
6,Cc1ccc(N2CCc3ncnc(NCc4ccc(Cl)cc4Cl)c3C2)nc1 [Compound 78],+/ (compound exhibited 0-25% inhibition at 3 μM)
7,Cc1ccc(N2CCc3ncnc(NCc4ccc(C)cc4C)c3C2)nc1 [Compound 79],++/ (compound exhibited 25-50% inhibition at 3 μM)
8,Cc1ccc(N2CCc3ncnc(NCc4cccc(C)c4C)c3C2)nc1 [Compound 80],+/ (compound exhibited 0-25% inhibition at 3 μM)
9,Cc1ccc(N2CCc3ncnc(NCc4ccc(Cl)cc4F)c3C2)nc1 [Compound 83],+++/ ^ (compound exhibited 50-75% inhibition at 3 μM)
10,Cc1ccc(N2CCc3ncnc(NCc4ccc(Cl)c(Cl)c4)c3C2)nc1 [Compound 85],+/ (compound exhibited 0-25% inhibition at 3 μM)
11,Cc1ccc(N2CCc3ncnc(NC(C)c4ccc(F)cc4)c3C2)nc1 (centres unmarked) [Compound 86],++++/ ^ (compound exhibited 75% or greater inhibition at 3 μM)
12,COc1cc(CNc2ncnc3c2CN(c2ccc(C)cn2)CC3)cc(OC)c1 [Compound 87],+/ (compound exhibited 0-25% inhibition at 3 μM)
13,Cc1ccc(N2CCc3ncnc(NCc4cc(C(F)(F)F)ccc4Cl)c3C2)nc1 [Compound 89],+ (compound exhibited 0-25% inhibition at 3 μM)
14,Cc1ccc(N2CCc3ncnc(NCc4ccc(F)c(C)c4)c3C2)nc1 [Compound 98],++++/ ^ (compound exhibited 75% or greater inhibition at 3 μM)
15,Cc1ccc(N2CCc3ncnc(NCc4cc(Cl)ccc4F)c3C2)nc1 [Compound 111],+++/ ^ (compound exhibited 50-75% inhibition at 3 μM)
16,Cc1ccc(N2CCc3ncnc(NCc4cc(Cl)cc(Cl)c4)c3C2)nc1 [Compound 115],+/ (compound exhibited 0-25% inhibition at 3 μM)
17,Cc1ccc(N2CCc3ncnc(NCc4ccc(C(F)(F)F)cc4F)c3C2)nc1 [Compound 121],++++/ ^ (compound exhibited 75% or greater inhibition at 3 μM)
18,Cc1ccc(N2CCc3ncnc(NCc4cc(C(F)(F)F)cc(C(F)(F)F)c4)c3C2)nc1 [Compound 125],+/ (compound exhibited 0-25% inhibition at 3 μM)

# Same assay, conditions: at 10 μM (symbol after the slash)
row,Compound,Ca Influx P2X2/3C % Inhibition at 3 μM/10 μM
1,COc1ccc(CN(C)c2ncnc3c2CN(c2ccc(C)cn2)CC3)cc1OC [Compound 59],**** (compound exhibited 25-50% inhibition at 10 μM)
2,Cc1ccc(N2CCc3ncnc(NCCc4cccc(C(F)(F)F)c4)c3C2)nc1 [Compound 61],**** (compound exhibited 25-50% inhibition at 10 μM)
3,Cc1ccc(N2CCc3ncnc(N(C)Cc4ccc(F)cc4)c3C2)nc1 [Compound 67],*** (compound exhibited 25-50% inhibition at 10 μM)
4,Cc1ccc(N2CCc3ncnc(NCc4cc(C(F)(F)F)ccc4Cl)c3C2)nc1 [Compound 89],* (compound exhibited 0-25% inhibition at 10 μM)
